In patent publication US9340590B2 (priority 2011, dated 2016):
pIC50: −log10 of the molar value. Positions of bridges follow the written chain, without caps; N, C: chain ends. Non-standard residues stand in square brackets, D forms with d. Residues, ends and D or L forms follow the SMILES beside them. Dab = NCC[C@H](N)C(=O)O; Abu = CC[C@H](N)C(=O)O

Columns and labels:
hNav1.5 = hNav1.5 (Homo sapiens, UniProt Q14524); test: cell-based
hNav1.7 = hNav1.7 (Homo sapiens, UniProt Q15858); test: cell-based; conditions: Nav1.7 Use IC50
Chain of hNav1.7 (Q15858 whole entry, looked up): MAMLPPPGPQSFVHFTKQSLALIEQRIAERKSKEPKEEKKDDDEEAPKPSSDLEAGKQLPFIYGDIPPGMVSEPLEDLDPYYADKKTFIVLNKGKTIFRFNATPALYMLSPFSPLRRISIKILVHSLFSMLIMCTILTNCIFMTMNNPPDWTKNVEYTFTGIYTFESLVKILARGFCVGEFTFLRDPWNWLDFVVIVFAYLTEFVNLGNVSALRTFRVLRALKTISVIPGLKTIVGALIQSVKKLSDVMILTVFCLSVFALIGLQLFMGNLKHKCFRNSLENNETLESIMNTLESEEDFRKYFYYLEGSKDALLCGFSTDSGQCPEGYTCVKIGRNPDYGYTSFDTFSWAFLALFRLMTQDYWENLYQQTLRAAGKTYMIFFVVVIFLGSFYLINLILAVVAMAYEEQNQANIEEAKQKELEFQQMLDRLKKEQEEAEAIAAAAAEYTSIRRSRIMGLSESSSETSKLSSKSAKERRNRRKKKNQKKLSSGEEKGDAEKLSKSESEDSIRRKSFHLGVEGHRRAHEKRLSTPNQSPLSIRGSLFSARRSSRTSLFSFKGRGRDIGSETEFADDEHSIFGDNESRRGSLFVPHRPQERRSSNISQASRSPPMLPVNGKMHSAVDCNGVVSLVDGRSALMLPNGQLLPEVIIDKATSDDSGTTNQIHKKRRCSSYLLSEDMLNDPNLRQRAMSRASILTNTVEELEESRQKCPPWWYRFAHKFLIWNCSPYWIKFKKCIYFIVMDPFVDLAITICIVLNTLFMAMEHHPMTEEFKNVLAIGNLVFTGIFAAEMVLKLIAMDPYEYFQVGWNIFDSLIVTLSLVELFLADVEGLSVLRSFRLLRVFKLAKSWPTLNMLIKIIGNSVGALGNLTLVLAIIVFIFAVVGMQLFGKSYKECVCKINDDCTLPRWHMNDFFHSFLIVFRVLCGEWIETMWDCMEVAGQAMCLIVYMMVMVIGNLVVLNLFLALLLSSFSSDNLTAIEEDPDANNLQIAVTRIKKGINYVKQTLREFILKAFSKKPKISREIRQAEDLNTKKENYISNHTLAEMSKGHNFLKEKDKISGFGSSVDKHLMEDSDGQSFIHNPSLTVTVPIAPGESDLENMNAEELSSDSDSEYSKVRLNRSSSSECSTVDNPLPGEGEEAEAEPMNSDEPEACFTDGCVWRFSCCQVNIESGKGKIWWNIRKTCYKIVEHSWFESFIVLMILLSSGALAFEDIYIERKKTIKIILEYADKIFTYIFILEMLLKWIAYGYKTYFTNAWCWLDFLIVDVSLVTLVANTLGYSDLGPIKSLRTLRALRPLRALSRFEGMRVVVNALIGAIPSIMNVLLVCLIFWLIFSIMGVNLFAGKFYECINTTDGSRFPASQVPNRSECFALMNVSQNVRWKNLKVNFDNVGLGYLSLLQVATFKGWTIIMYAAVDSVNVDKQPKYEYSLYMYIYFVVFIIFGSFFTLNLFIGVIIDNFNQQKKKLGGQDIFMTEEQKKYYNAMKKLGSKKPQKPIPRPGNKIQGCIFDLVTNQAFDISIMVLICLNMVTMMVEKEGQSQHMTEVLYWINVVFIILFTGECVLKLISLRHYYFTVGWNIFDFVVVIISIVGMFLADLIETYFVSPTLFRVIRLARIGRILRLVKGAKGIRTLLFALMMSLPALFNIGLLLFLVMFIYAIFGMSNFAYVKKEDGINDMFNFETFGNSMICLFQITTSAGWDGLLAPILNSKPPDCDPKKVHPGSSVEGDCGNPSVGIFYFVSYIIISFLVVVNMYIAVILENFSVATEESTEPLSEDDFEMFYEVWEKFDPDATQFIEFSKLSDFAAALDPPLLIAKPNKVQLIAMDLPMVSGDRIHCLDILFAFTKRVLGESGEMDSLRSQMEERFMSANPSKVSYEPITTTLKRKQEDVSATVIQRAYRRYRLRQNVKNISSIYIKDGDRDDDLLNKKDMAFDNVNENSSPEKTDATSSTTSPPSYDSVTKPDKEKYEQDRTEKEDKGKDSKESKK

Chain of hNav1.5 (Q14524 whole entry, looked up): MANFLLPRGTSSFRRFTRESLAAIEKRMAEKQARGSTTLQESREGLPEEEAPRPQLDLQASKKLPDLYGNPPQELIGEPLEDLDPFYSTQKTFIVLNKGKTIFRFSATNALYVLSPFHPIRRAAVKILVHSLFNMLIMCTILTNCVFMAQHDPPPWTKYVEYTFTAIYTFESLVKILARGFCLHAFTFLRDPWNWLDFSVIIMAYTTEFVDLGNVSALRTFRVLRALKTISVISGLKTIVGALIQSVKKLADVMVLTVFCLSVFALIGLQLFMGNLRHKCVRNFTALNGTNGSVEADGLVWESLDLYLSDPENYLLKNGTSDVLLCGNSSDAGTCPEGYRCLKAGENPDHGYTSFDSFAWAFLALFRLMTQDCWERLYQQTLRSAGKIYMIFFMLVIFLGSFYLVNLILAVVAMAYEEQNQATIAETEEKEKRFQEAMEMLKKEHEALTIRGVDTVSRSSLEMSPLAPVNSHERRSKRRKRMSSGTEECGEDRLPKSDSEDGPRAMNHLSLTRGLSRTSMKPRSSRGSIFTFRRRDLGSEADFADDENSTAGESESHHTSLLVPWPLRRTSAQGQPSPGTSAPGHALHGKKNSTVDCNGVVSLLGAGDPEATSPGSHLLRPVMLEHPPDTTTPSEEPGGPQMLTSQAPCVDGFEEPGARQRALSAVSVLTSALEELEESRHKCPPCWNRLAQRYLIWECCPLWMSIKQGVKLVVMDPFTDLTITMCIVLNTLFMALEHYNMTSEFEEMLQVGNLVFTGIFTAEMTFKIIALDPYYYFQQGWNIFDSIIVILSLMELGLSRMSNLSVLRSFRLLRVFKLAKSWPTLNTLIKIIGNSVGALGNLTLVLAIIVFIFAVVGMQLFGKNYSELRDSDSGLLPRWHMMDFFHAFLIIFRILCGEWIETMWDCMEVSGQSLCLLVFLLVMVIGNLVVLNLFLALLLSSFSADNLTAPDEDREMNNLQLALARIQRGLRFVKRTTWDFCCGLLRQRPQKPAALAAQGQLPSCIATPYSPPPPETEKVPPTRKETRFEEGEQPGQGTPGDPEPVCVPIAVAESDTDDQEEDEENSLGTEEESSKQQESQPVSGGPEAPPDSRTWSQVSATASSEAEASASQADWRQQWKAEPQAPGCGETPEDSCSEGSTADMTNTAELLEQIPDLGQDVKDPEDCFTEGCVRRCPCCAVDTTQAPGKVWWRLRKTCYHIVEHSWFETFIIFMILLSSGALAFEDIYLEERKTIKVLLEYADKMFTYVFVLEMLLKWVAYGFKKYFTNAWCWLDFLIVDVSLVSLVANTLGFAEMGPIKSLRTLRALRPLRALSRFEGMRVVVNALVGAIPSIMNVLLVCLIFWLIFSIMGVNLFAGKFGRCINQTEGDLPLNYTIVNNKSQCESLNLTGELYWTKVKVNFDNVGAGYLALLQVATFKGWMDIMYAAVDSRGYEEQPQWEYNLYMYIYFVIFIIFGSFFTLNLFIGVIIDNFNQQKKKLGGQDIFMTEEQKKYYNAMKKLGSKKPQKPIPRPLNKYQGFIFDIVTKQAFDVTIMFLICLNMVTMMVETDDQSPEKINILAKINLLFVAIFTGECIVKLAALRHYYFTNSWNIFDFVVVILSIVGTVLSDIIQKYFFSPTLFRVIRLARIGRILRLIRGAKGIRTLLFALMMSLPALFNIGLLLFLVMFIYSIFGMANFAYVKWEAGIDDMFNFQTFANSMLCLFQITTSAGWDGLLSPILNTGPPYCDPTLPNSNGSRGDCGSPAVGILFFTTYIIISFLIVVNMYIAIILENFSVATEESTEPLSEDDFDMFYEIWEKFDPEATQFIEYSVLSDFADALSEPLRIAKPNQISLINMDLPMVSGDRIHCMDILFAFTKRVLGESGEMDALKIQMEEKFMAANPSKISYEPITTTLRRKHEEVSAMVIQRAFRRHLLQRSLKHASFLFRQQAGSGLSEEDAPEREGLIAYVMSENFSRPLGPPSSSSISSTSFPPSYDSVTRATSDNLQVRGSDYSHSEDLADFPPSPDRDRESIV

Structure (SMILES)	pIC50 (hNav1.5)	pIC50 (hNav1.7)
CC[C@@H]1NC(=O)[C@H](CC(=O)O)NC(=O)[C@@H]2CCCN2C(=O)[C@H](CCC(=O)O)NC(=O)[C@@H]2CSSC[C@@H]3NC(=O)[C@H](C(C)C)NC(=O)[C@H](CC(C)C)NC(=O)[C@H](CC(N)=O)NC(=O)[C@@H]4CCCN4C(=O)[C@H](CCCNC(=N)N)NC(=O)[C@H](CSSC[C@H](NC(=O)[C@@H](N)CC(=O)O)C(=O)N[C@@H](CC(C)C)C(=O)NCC(=O)N[C@@H](C)C(=O)N[C@@H](Cc4ccccc4)C(=O)N[C@@H](CCCNC(=N)N)C(=O)N[C@@H](CCCCN)C(=O)N2)NC(=O)[C@H](CSSC[C@@H](C(=O)N[C@@H](CCCCN)C(=O)N[C@@H](Cc2ccc(O)cc2)C(=O)N[C@H](C(=O)N[C@@H](Cc2ccccc2)C(N)=O)C(C)C)NC(=O)[C@H](Cc2c[nH]c4ccccc24)NC(=O)[C@H](CCCNC(=N)N)NC(=O)[C@H](Cc2c[nH]cn2)NC(=O)[C@H](CC(C)C)NC(=O)[C@H](CCCNC(=N)N)NC(=O)[C@H](CO)NC3=O)NC(=O)[C@H](CCCCN)NC(=O)[C@H](CC(=O)O)NC1=O (H-DCLGAFRKCEPD[Abu]DKCCRPNLVCSRLHRWCKYVF-NH2; disulfide 2-17, 9-23, 16-30)	< 5.00	8.46
CC[C@@H]1NC(=O)[C@H](CC(=O)O)NC(=O)[C@@H]2CCCN2C(=O)[C@H]([C@@H](C)CC)NC(=O)[C@@H]2CSSC[C@@H]3NC(=O)[C@H](C(C)C)NC(=O)[C@H](CC(C)C)NC(=O)[C@H](CC(N)=O)NC(=O)[C@@H]4CCCN4C(=O)[C@H](CCCNC(=N)N)NC(=O)[C@H](CSSC[C@H](NC(=O)[C@@H](N)CC(=O)O)C(=O)N[C@@H](CC(C)C)C(=O)NCC(=O)N[C@@H](C)C(=O)N[C@@H](Cc4ccccc4)C(=O)N[C@@H](CCCNC(=N)N)C(=O)N[C@@H](CCCCN)C(=O)N2)NC(=O)[C@H](CSSC[C@@H](C(=O)N[C@@H](CCCCN)C(=O)N[C@@H](Cc2ccc(O)cc2)C(=O)N[C@H](C(=O)N[C@@H](Cc2ccccc2)C(N)=O)C(C)C)NC(=O)[C@H](Cc2c[nH]c4ccccc24)NC(=O)[C@H](CCCNC(=N)N)NC(=O)[C@H](Cc2c[nH]cn2)NC(=O)[C@H](CC(C)C)NC(=O)[C@H](CCCNC(=N)N)NC(=O)[C@H](CO)NC3=O)NC(=O)[C@H](CCCCN)NC(=O)[C@H](CC(=O)O)NC1=O (H-DCLGAFRKCIPD[Abu]DKCCRPNLVCSRLHRWCKYVF-NH2; disulfide 2-17, 9-23, 16-30)	< 5.00	8.33
CC[C@H](C)[C@@H]1NC(=O)[C@@H]2CSSC[C@@H]3NC(=O)[C@H](C(C)C)NC(=O)[C@H](CC(C)C)NC(=O)[C@H](CC(N)=O)NC(=O)[C@@H]4CCCN4C(=O)[C@H](CCCNC(=N)N)NC(=O)[C@H](CSSC[C@H](NC(=O)[C@@H](N)CC(=O)O)C(=O)N[C@@H](CC(C)C)C(=O)NCC(=O)N[C@@H](C)C(=O)N[C@@H](Cc4ccccc4)C(=O)N[C@@H](CCCNC(=N)N)C(=O)N[C@@H](CCCCN)C(=O)N2)NC(=O)[C@H](CSSC[C@@H](C(=O)N[C@@H](CCCCN)C(=O)N[C@@H](Cc2ccc(O)cc2)C(=O)N[C@H](C(=O)N[C@@H](Cc2ccccc2)C(N)=O)C(C)C)NC(=O)[C@H](Cc2c[nH]c4ccccc24)NC(=O)[C@H](CCCCN)NC(=O)[C@H](Cc2c[nH]cn2)NC(=O)[C@H]([C@@H](C)O)NC(=O)[C@H](CCCNC(=N)N)NC(=O)[C@H](CO)NC3=O)NC(=O)[C@H](CCCCN)NC(=O)[C@H](CC(=O)O)NC(=O)[C@H](CC(N)=O)NC(=O)[C@H](CCC(=O)O)NC(=O)[C@@H]2CCCN2C1=O [[Ala5;Phe6;Glu12]GpTx-1(1-34)] (H-DCLGAFRKCIPENDKCCRPNLVCSRTHKWCKYVF-NH2; disulfide 2-17, 9-23, 16-30)	< 5.00	7.55
CC[C@H](C)[C@@H]1NC(=O)[C@@H]2CSSC[C@@H]3NC(=O)[C@H](C(C)C)NC(=O)[C@H](CC(C)C)NC(=O)[C@H](CC(N)=O)NC(=O)[C@H](CCCCN)NC(=O)[C@H](CCCNC(=N)N)NC(=O)[C@H](CSSC[C@H](NC(=O)[C@@H](N)CC(=O)O)C(=O)N[C@@H](CC(C)C)C(=O)NCC(=O)N[C@@H](Cc4ccccc4)C(=O)N[C@@H](CCSC)C(=O)N[C@@H](CCCNC(=N)N)C(=O)N[C@@H](CCCCN)C(=O)N2)NC(=O)[C@H](CSSC[C@@H](C(=O)N[C@@H](CCCCN)C(=O)N[C@@H](Cc2ccc(O)cc2)C(=O)N[C@H](C(=O)N[C@@H](Cc2ccccc2)C(N)=O)C(C)C)NC(=O)[C@H](Cc2c[nH]c4ccccc24)NC(=O)[C@H](CCCCN)NC(=O)[C@H](Cc2cnc[nH]2)NC(=O)[C@H]([C@@H](C)O)NC(=O)[C@H](CCCNC(=N)N)NC(=O)[C@H](CO)NC3=O)NC(=O)[C@H](CCCCN)NC(=O)[C@H](CC(=O)O)NC(=O)[C@H](CC(N)=O)NC(=O)[C@H](CC(=O)O)NC(=O)[C@@H]2CCCN2C1=O [[Lys19]GpTx-1(1-34)] (H-DCLGFMRKCIPDNDKCCRKNLVCSRTHKWCKYVF-NH2; disulfide 2-17, 9-23, 16-30)	5.04	8.52
CSCC[C@@H]1NC(=O)[C@H](C)NC(=O)CNC(=O)[C@H](CC(C)C)NC(=O)[C@@H](NC(=O)[C@@H](N)CC(=O)O)CSSC[C@@H]2NC(=O)[C@@H]3CSSC[C@@H](C(=O)N[C@@H](CCCCN)C(=O)N[C@@H](Cc4ccc(O)cc4)C(=O)N[C@H](C(=O)N[C@@H](Cc4ccccc4)C(N)=O)C(C)C)NC(=O)[C@H](Cc4c[nH]c5ccccc45)NC(=O)[C@H](CCCCN)NC(=O)[C@H](Cc4c[nH]cn4)NC(=O)[C@H]([C@@H](C)O)NC(=O)[C@H](CCCNC(=N)N)NC(=O)[C@H](CO)NC(=O)[C@H](CSSC[C@H](NC(=O)[C@H](CCCCN)NC(=O)[C@H](CCCNC(=N)N)NC1=O)C(=O)N[C@@H](CC(=O)O)C(=O)N1CCC[C@H]1C(=O)N[C@@H](CC(=O)O)C(=O)N[C@@H](CC(N)=O)C(=O)N[C@@H](CC(=O)O)C(=O)N[C@@H](CCCCN)C(=O)N3)NC(=O)[C@H](C(C)C)NC(=O)[C@H](CC(C)C)NC(=O)[C@H](CC(N)=O)NC(=O)[C@@H]1CCCN1C(=O)[C@H](CCCNC(=N)N)NC2=O [[Ala5;Asp10]GpTx-1(1-34)] (H-DCLGAMRKCDPDNDKCCRPNLVCSRTHKWCKYVF-NH2; disulfide 2-17, 9-23, 16-30)	< 5.00	7.30
CC[C@H](C)[C@@H]1NC(=O)[C@@H]2CSSC[C@@H]3NC(=O)[C@H](C(C)C)NC(=O)[C@H](CC(C)C)NC(=O)[C@H](CC(N)=O)NC(=O)[C@@H]4CCCN4C(=O)[C@H](CCCNC(=N)N)NC(=O)[C@H](CSSC[C@H](NC(=O)[C@@H](N)CC(=O)O)C(=O)N[C@@H](CC(C)C)C(=O)NCC(=O)N[C@@H](C)C(=O)N[C@@H](CCSC)C(=O)N[C@@H](CCCNC(=N)N)C(=O)N[C@@H](CCCCN)C(=O)N2)NC(=O)[C@H](CSSC[C@@H](C(=O)N[C@@H](CCCCN)C(=O)N[C@@H](Cc2ccc(O)cc2)C(=O)N[C@H](C(=O)N[C@@H](Cc2ccccc2)C(N)=O)C(C)C)NC(=O)[C@H](Cc2c[nH]c4ccccc24)NC(=O)[C@H](CCN)NC(=O)[C@H](Cc2c[nH]cn2)NC(=O)[C@H]([C@@H](C)O)NC(=O)[C@H](CCCNC(=N)N)NC(=O)[C@H](CO)NC3=O)NC(=O)[C@H](CCCCN)NC(=O)[C@H](CC(=O)O)NC(=O)[C@H](CC(N)=O)NC(=O)[C@H](CC(=O)O)NC(=O)[C@@H]2CCCN2C1=O [[Ala5;Dab28]GpTx-1(1-34)] (H-DCLGAMRKCIPDNDKCCRPNLVCSRTH[Dab]WCKYVF-NH2; disulfide 2-17, 9-23, 16-30)	< 5.00	7.89
CSCC[C@@H]1NC(=O)[C@H](C(C)C)NC(=O)CNC(=O)[C@H](CC(C)C)NC(=O)[C@@H](NC(=O)[C@@H](N)CC(=O)O)CSSC[C@@H]2NC(=O)[C@@H]3CSSC[C@@H](C(=O)N[C@@H](CCCCN)C(=O)N[C@@H](Cc4ccc(O)cc4)C(=O)N[C@H](C(=O)N[C@@H](Cc4ccccc4)C(N)=O)C(C)C)NC(=O)[C@H](Cc4c[nH]c5ccccc45)NC(=O)[C@H](CCCCN)NC(=O)[C@H](Cc4c[nH]cn4)NC(=O)[C@H]([C@@H](C)O)NC(=O)[C@H](CCCNC(=N)N)NC(=O)[C@H](CO)NC(=O)[C@H](CSSC[C@H](NC(=O)[C@H](CCCCN)NC(=O)[C@H](CCCNC(=N)N)NC1=O)C(=O)N[C@@H](CC(=O)O)C(=O)N1CCC[C@H]1C(=O)N[C@@H](CCC(=O)O)C(=O)N[C@@H](CC(N)=O)C(=O)N[C@@H](CC(=O)O)C(=O)N[C@@H](CCCCN)C(=O)N3)NC(=O)[C@H](C(C)C)NC(=O)[C@H](CC(C)C)NC(=O)[C@H](CC(N)=O)NC(=O)[C@@H]1CCCN1C(=O)[C@H](CCCNC(=N)N)NC2=O [[Val5;Asp10;Glu12]GpTx-1(1-34)] (H-DCLGVMRKCDPENDKCCRPNLVCSRTHKWCKYVF-NH2; disulfide 2-17, 9-23, 16-30)	< 5.00	6.94
CC[C@H](C)[C@@H]1NC(=O)[C@@H]2CSSC[C@@H]3NC(=O)[C@H](Cc4ccc(O)cc4)NC(=O)[C@H](CC(C)C)NC(=O)[C@H](CC(N)=O)NC(=O)[C@@H]4CCCN4C(=O)[C@H](CCCNC(=N)N)NC(=O)[C@H](CSSC[C@H](NC(=O)[C@@H](N)CC(=O)O)C(=O)N[C@@H](CC(C)C)C(=O)NCC(=O)N[C@@H](Cc4ccccc4)C(=O)N[C@@H](CCSC)C(=O)N[C@@H](CCCNC(=N)N)C(=O)N[C@@H](CCCCN)C(=O)N2)NC(=O)[C@H](CSSC[C@@H](C(=O)N[C@@H](CCCCN)C(=O)N[C@@H](Cc2ccc(O)cc2)C(=O)N[C@H](C(=O)N[C@@H](Cc2ccccc2)C(N)=O)C(C)C)NC(=O)[C@H](Cc2c[nH]c4ccccc24)NC(=O)[C@H](CCCCN)NC(=O)[C@H](Cc2c[nH]cn2)NC(=O)[C@H]([C@@H](C)O)NC(=O)[C@H](CCCNC(=N)N)NC(=O)[C@H](CO)NC3=O)NC(=O)[C@H](CCCCN)NC(=O)[C@H](CC(=O)O)NC(=O)[C@H](CC(N)=O)NC(=O)[C@H](CC(=O)O)NC(=O)[C@@H]2CCCN2C1=O [[Tyr22]GpTx-1(1-34)] (H-DCLGFMRKCIPDNDKCCRPNLYCSRTHKWCKYVF-NH2; disulfide 2-17, 9-23, 16-30)	< 5.00	7.74
